Experimental data published in US20250130239A1, “PROTEIN DEGRADER” (University of Dundee, priority 2021, published 2025).

How the values were obtained:
BromoTag-Brd2 = target: T1, BromoTag-Brd2 (Homo sapiens, UniProt O60885+P40337, L387A); assay: Time-course degradation assay in heterozygous BromoTag-Brd2 HEK293 cells; type: cell-based; settings: 500 nM
T1 construct: comprising residues 368-440 of human Brd4; Brd2 (endogenous protein, fusion partner in the same polypeptide); eGFP-P2A (upstream marker in the knock-in cassette) (N, cleaved yes); expressed in transfected cells; host or cells: HEK293, heterozygous CRISPR knock-in at the endogenous BRD2 locus
Procedure: Time-course Degradation Assay. Time-course degradation assays using PROTACs AGB1, AGB2, and AGB3 were performed on the genotype verified heterozygous BromoTag-Brd2 HEK293 cell line. Heterozygous BromoTag-Brd2 HEK293 cells were plated at a density of 5×10^5 cells per well of a 6 healthy plate a day prior to initiation of the Timecourse assay. PROTAC's AGB1 & AGB2 were diluted in DMSO to a concentration of 1 mM prior to being further diluted 1:2000 in 2 mL of DMEM to a concentration of 500 nM per timepoint. PROTAC AGB3 was diluted in DMSO to a concentration of 2 mM prior to being further diluted 1:2000 in 2 mL of DMEM to a concentration of 1 μM per timepoint. Timepoint range was between 0-36 h. Treatment was applied in a staggered fashion to enable all timepoints to be harvested at the same time.
Western Blotting. All cells were harvested on ice with RIPA lysis, and extraction buffer (ThermoFisher Scientific, 89901) supplemented with protease inhibitor cocktail (Merck, 11697498001) and Benzonase® Nuclease (Sigma, E1014) before being store at −20° C. prior to use. Total protein quantity was determined using the BCA protein assay (#23225, Pierce, Rockford, Illinois). Protein concentration was determined using the BCA assay (ThermoFisher Scientific, 23225). Samples were then prepared and loaded onto NuPAGE™ 4-12% Bis-Tris Midi gels (ThermoFisher Scientific, WG1403A), followed by the transfer of the proteins onto nitrocellulose membranes (EMD Millipore). The membranes were blocked for 1 h prior to incubation with the primary antibodies using 5% Milk TBST. Membranes were probed for Brd2 (Abcam, Ab139690, 1:1000), Brd3 (Abcam, Ab50818, 1:4000), Brd4 (Abcam, Ab128874, 1:1000) or our polyclonal Brd4^BD2 L387A antibody. […] All western blots were analysed for band intensities using Image Lab from Bio-Rad (LI-COR, Biosciences). The data extracted from these blots were then plotted and analysed using Prism (v. 8.2.0, GraphPad).

HEK293 cells = assay: CellTiter-Glo cell viability assay, HEK293; type: cell-based, human; settings: up to 10 μM; 48 h
[1] = In vivo PK profiling of AGB1; parameters: species or system C57BL/6 male mice; settings: SC (5 mg/kg), mice
Procedure: In Vivo PK Profiling. Pharmacokinetic profiling was outsourced and undertaken by Shanghai ChemPartner Co., Ltd. Six to eight-week-old, C57BL/6 male mice purchased from Jihui Laboratory Animal Co. LTD were used in the study. […] The animals were restrained manually at the designated time points (0.083, 0.25, 0.5, 1, 2, 4 and 8 h), approximately 110 μL of blood sample was collected via facial vein into K2EDTA tubes. Three mice per time point were used resulting in a total of […]. Blood sample was put on ice and centrifuged at 2000 g for 5 mins to obtain plasma sample within 15 min. Plasma samples were stored at approximately −70° C. until analysis. A 30 μL aliquot of plasma was added with 200 μL internal standard (Diclofenac, 40 ng/mL) in 1% formic acid in MeCN. The mixture was then vortexed for 1 min and then centrifuged for 10 min at 5800 rpm. 100 μL of supernatant was transferred to a new plate. 0.5 μL of solvent was injected to LC-MS/MS. LC-MS/MS instrument used: SCIEX LC-MS/MS-45 (Triple Quad 6500+). Data was analysed by WinNonLin and Microsoft Excel.

[2] = target: T2, BRD4 (O60885), BromoTag N-term (Homo sapiens, UniProt O60885+P40337, L387A); assay: Degradation of BromoTag'ed BRD4 by AGB1; type: cell-based
T2 construct: comprising residues 368-440 of human Brd4; expressed in transfected cells
Text: (§1) Degradation of a variety of target proteins. […] We performed CRISPR knock-in of the BromoTag, as described, into the endogenous loci of five additional proteins. […] The target proteins of Table 6 are all different, are all known to have different cellular roles and function, intracellular expression, and distinctive turnover rates within cells.

[3] = target: T3, PPM1H (Q9ULR3), BromoTag C-term (Homo sapiens, UniProt O60885+P40337, L387A); assay: Degradation of BromoTag'ed PPM1H by AGB1; type: cell-based
T3 construct: comprising residues 368-440 of human Brd4; PPM1H (endogenous protein, fusion partner in the same polypeptide); expressed in transfected cells
Text: as §1

T2 sequence (P40337 whole entry, other chains not shown, the tested form may be a part): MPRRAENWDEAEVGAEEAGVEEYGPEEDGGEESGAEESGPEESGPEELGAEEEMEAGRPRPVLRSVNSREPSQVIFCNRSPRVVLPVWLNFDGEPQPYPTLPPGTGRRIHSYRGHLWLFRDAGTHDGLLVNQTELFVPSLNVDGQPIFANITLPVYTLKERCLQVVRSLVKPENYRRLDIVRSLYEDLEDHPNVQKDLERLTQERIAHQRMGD
T3 sequence (P40337 whole entry, other chains not shown, the tested form may be a part): as above
T1 sequence (P40337 whole entry, other chains not shown, the tested form may be a part): as above

CC[C@@H](C(=O)OCCOCCOCCOCC(=O)N[C@H](C(=O)N1C[C@H](O)C[C@H]1C(=O)NCc1ccc(-c2scnc2C)cc1)C(C)(C)C)[C@@H]1N=C(c2ccc(Cl)cc2)c2c(sc(C)c2C)-n2c(C)nnc21 (single isomer, unassigned) [AGB1 (46)]
time to completely degrade BromoTag-Brd2 (BromoTag-Brd2): ≤ 6 h | cytotoxicity (HEK293 cells): lack of cytotoxicity | F (%) [1]: 140% | Dmax [2]: > 95% | pDC50 ([2]; BromoTag'ed BRD4, N-term tag): 7.9 | Dmax [3]: > 95% | pDC50 ([3]; BromoTag'ed PPM1H, C-term tag): >7.0
